From patent US12410178B2, “Small cationic ortho-5,15-di-heteroaryl-porphyrin derivatives and their applications in photoinactivation of microorganisms” (UNIVERSIDADE DE COIMBRA, priority 2019, dated 2025)

Key:
[1] = Singlet oxygen quantum yield; assay type: physicochemical; settings: excitation 355 nm, reference phenalenone
Source text: Singlet Oxygen Quantum Yield: The experiments were run at room temperature. The solutions were excited at 355 nm using a Nd-YAG laser (Spectra-Physics Quanta-Ray GRC-130) and the phosphorescence of singlet oxygen collected at 1270 nm in a Hamamatsu R5509-42 photomultiplier, cooled to 193 K in a liquid nitrogen chamber, after selection of the wavelength with a monochromator with 600 lines grading. A Newport filter model 10LWF-1000-B was used in the emission to avoid scattering and fluorescence. Phenalenone was used as a reference of singlet oxygen generator, ΦΔ^Ref=0.98. Extrapolating to time-zero the decays of the singlet molecular oxygen emissions measured for sample and the reference solutions at a given laser intensity, we obtained a relation between emission intensities as a function of laser intensity, that is identical to the relation between the singlet molecular oxygen quantum yields. The singlet oxygen quantum yields were obtained by comparing the linear dependence between and the energy of the laser pulse for both the sample and the reference for the same absorption of sample and reference at the excitation wavelength, taking into account the singlet oxygen quantum yield of phenalenone.

[2] = test system: HaCaT immortalized human keratinocyte; assay: Toxicity and phototoxicity towards human cell lines (MTT); assay type: cell-based
Protocol: (§1) Toxicity towards human cell lines was evaluated in vitro using the 3-(4,5-dimethylthiazol-2-yl)2,5-diphenyl tetrazolium bromide (MTT, from Sigma Aldrich) assay to estimate the viability of cells after appropriate treatment. After cell attachment, photosensitizer solutions in PBS at concentrations between 0 to 10 μM were added to the cell cultures and incubated for 1 h at 37° C. in the dark. After illumination with the Biotable® or after the equivalent time in control experiments, MTT dissolved at 5 mg/ml in PBS was added to each well (final concentration 0.5 mg/ml), and the microplates were further incubated for 3-4 hours. Medium were then discarded and 100 μl of methanol were added to the cultures and mixed thoroughly to dissolve the dark blue crystals of formazan. Formazan quantification was performed using an automatic microplate reader (Multiskan Go Thermo) by absorbance measurements at 570 nm. Each experiment was repeated three times. Data were expressed as mean absorbance value of six samples and standard error of the mean.
(§2) This example describes the evaluation of in vitro toxicity against HDFn neonatal human dermal fibroblast and HaCaT immortalized human keratinocyte cell lines of a cationic ortho-5,15-di-heteroaryl porphyrin with Formula (IIa). Both types of cells were grown in DMEM (BioTech) with addition of 10% fetal bovine serum (Cultilab—Campinas, SP, Brazil). Before the experiments, the cells were removed by trypsinization, washed with PBS and maintained in a humidified atmosphere at 37° C. and 5% CO2. The cells were incubated in the dark with the photosensitizer of Formula (IIa) in PBS for 30 min at concentrations up to 10 μM, and then illuminated with the Biotable® to deliver 5 J/cm^2 in the wavelength range between 400-700 nm. After exposure to light, the cells were washed with fresh medium and plates were returned to the incubator for 24 h. Cell viability was determined by a MTT assay performed 24 h after irradiation. The cells in the control experiment remained in the dark for the time of the illumination. […] Exposure to a light dose of 5 J/cm^2 led only to a 20% decrease in the viability of fibroblasts at the highest drug dose tested: 10 μM.

[3] = test system: HDFn neonatal human dermal fibroblast; assay: as above; assay type: cell-based
Protocol: as §1, §2

[4] = test system: Acinetobacter baumannii 141HUC; assay: PDI phototoxicity towards multidrug-resistant planktonic bacteria (CFU); assay type: cell-based; settings: 60 min incubation, 1.36 J/cm^2 at 415 nm
Protocol: Phototoxicity towards bacteria was evaluated in vitro. Assays were performed with the following bacteria: Escherichia coli ATCC 25922, Pseudomonas aeruginosa ATCC 27853 and Staphylococcus aureus ATCC 29213. Further assay were performed with clinical antibiotic-resistant strains from the Centro Hospitalar da Universidade de Coimbra, namely Staphylococcus aureus methicillin-resistant (MRSA) strain Sa1CHUC recovered from the skin of a burnt patient (resistant to all beta-lactamic antibiotics), and Acinetobacter baumannii 141HUC isolated from an exudate of a burn wound and highly resistant to all beta-lactamics (penicillins, cephalosporins, monobactams and carbapenems), quinolones and the aminoglycosides gentamicin and netilmicin. The planktonic bacteria cells were cultured in Mueller Hinton (MH) agar (Sigma Aldrich) at 37° C. overnight. Cell density was adjusted to the 0.5 McFarland standard in sterile water, which corresponds to approximately 1.5×10^8 CFU/mL. For PDI experiments cell suspensions of bacteria were incubated with various concentrations of the photosensitizers for 1 h, in the dark, at room temperature, using a 96 well plate. Then, the plate was illuminated with a blue light LED (420 nm, 4 mJ/s). Cells incubated with photosensitizers in the dark were covered with aluminum foil for the same time as the PDI groups (1 h). After illumination (or dark incubation) samples were shaken, diluted in PBS and mixed. Aliquots were taken from each well and streaked in MH agar in duplicate for CFU determination and incubated for 37° C./18-24 h in the dark. After 24 h, the colonies were counted and CFU determined. The experiments were performed in triplicate. Statistical analysis was performed with GraphPad Prism 6.
This example describes the evaluation of in vitro phototoxicity against multidrug-resistant Gram-positive and Gram-negative bacteria of the cationic ortho-5,15-di-heteroaryl porphyrin with Formula (IIa). Assays were performed with clinical resistant strains from the Centro Hospitalar da Universidade de Coimbra, namely Staphylococcus aureus methicillin-resistant (MRSA) strain Sa1CHUC collected from the skin of a burnt patient (resistant to all beta-lactamic antibiotics), and Acinetobacter baumannii 141HUC highly resistant all beta-lactamics, including carbapenems, quinolones, gentamicin and netilmicin, isolated from an exudate of a burn wound. The phototoxicity was measured according to the description in the Materials and Methods section. […] There is a dose-phototoxicity response of the test compound relative to the non-treated control. FIG. 9 illustrates the CFU reduction as a function of photosensitizer concentration for the light dose of 1.36 J/cm^2 at 415 nm.

[5] = n-Octanol:PBS partition ratio (modified shake-flask); assay type: physicochemical; settings: equal volumes
Source text: n-Octanol:PBS partition ratio: a modification of the shake-flask method was employed to determine the equilibrium concentrations of the photosensitizer in n-octanol and in phosphate-buffered saline (PBS) mixed in equal volumes, using the typical fluorescence band of the same photosensitizer and the ratio of the fluorescences after dilution by the same factor with dimethylsulfoxide.

[6] = Fluorescence quantum yield; assay type: physicochemical; settings: standard TPP in toluene
Protocol: Fluorescence Emission: The fluorescence emission spectra were recorded in a Horiba Scientific Spectrofluorometer Fluoromax-4. The spectra were collected from 550 nm up to 800 nm using standard cuvettes of 1 cm of optical path. Fluorescence quantum yields (ΦF) were obtained comparing the area of integrated fluorescence of the samples with that of a reference fluorimetric compound with known ΦF, corrected by the absorption of sample and reference at the excitation wavelength and by the refractive indices of the solvents used for the standard and reference solution. Tetraphenylporphyrin (TPP) in toluene (ΦF=0.11) was used as standard. The absorbance of the solutions at the excitation wavelength was 0.01.

## Cn1cc[n+](C)c1C1=C2C=CC3=[N+]2[Zn@]24[n]5c(ccc51)C=C1C=CC(=[N+]12)C(c1n(C)cc[n+]1C)=c1ccc([n]14)=C3 [Formula (IIa), 5,15-bis(1,3-dimethylimidazol-2-yl)porphyrinate zinc (II) diiodide]
[1]
  ΦΔ singlet oxygen generation quantum yield: 0.75
[2]; 10 μM, in the dark
  Dark cytotoxicity, cell viability: did not show a statistically significant reduction of cell viability
[2]; light dose 5 J/cm^2
  Survival fraction at 10 μM, Keratinocytes: 80%
[3]; 10 μM, in the dark
  Dark cytotoxicity, cell viability: did not show a statistically significant reduction of cell viability
[3]; 10 μM, light dose 5 J/cm^2
  decrease in the viability: 20%
[3]; light dose 5 J/cm^2
  Survival fraction at 10 μM, Fibroblast: 100%
[4]; 1 μM
  reduction of the number of bacterial CFU (in words): dramatic decrease in CFU
[4]; planktonic
  log CFU at 1 μM, Acinetobacter 141Hu: 7
[5]
  log Pow: −1.16
[6]
  ΦF fluorescence quantum yield: 0.10
